Data published in patent US8536304B2, “Tumour-associated peptides that bind to MHC molecules” (Immatics Biotechnologies GmbH, priority 2002, dated 2013).

Experiments:
[1] = test system: MZ 1774 (renal cell carcinoma); experiment: 51Cr-release CTL-assay against tumor cell line MZ 1774; type: cell-based, human; settings: cell line MZ 1774, FIG. 3f
Description: In the CTL-assays, tumor cells, peptide-pulsed cells of different cell lines and autologous DC were used as target cells. Peptide-pulsed cells were pulsed with 50 μg/ml peptide (SEQ ID No. 1 or SEQ ID No. 2) for 2 hours. All target cells were labeled with [^51Cr] sodium chromate in RP10 (RPMI 1640, supplemented with 10% heat inactivated calf serum and antibiotics) for 1 hour at 37° C. Subsequently, 10^4 cells/well were transferred to a 96-well round bottomed plate. Varying numbers of CTL were added to give a final volume of 200 μl and incubated for 4 hours at 37° C. At the end of the assays, supernatants (50 μl/well) were harvested and counted in a beta-plate counter. […] The spontaneous and maximal release were determined in the presence of either medium or 2% Triton X-100, respectively.
Next, it was tested, in a standard tumor ^51Cr-release-assays again, whether CTL specific for the c-Met-peptide with SEQ ID No. 1 or for adipophilin-peptide with SEQ ID No. 2 recognized and lysed tumor cells, which endogenously express the c-Met-protooncogene or adipophilin. […]

51Cr-labeled tumor cells = experiment: Target inhibition assay with peptide-pulsed T2 inhibitor cells, CTL of CLL patient; type: cell-based, human; settings: adipophilin-peptide-induced CTL of CLL patient; FIG. 6
Text: The specificity of the CTL-response was further confirmed in a target inhibition assay, using the cell line T2 (see above) as inhibitor cells, which were pulsed with the adipophilin peptide with SEQ ID NO:2 or with the irrelevant peptide Survivin with SEQ ID NO:80, respectively. The CTL induced with adipophilin-peptide with SEQ ID NO:2 lysed the excess inhibitor cell lines which were pulsed with the relevant peptide with SEQ ID NO:2 no that ^51Cr-labeled tumor cells were not lysed in this case (see in FIG. 6 the curve with empty boxes).

SVASTITGV (listed as Homo sapiens) [SEQ ID No. 2, HLA-A*02 ligand, adipose differentiation-related protein 129-137]
lysis of tumor cells by CTL induced with the peptide [1]: efficiently lyse | lysis of 51Cr-labeled tumor cells in presence of excess T2 inhibitor cells pulsed with the peptide (51Cr-labeled tumor cells): not lysed
